Source: US20100055169A1, “CATIONIC LIPIDS AND USES THEREOF” (ABBOTT LABORATORIES, priority 2008, published 2010)

Assay: RiboGreen assay of siRNA encapsulation efficiency, in vivo formulations of Lipid-Based Particles
Format: physicochemical
Conditions: in vivo formulation A: Cationic lipid/Example 73/DSPC/Chol 45/10/15/30 wt %, lipid:siRNA 25:1
Procedure: (§1) RNA concentration and encapsulation efficiency were determined using a Quant-iT® Ribogreen RNA reagent and kit available from Invitrogen. The siRNA was released from the Lipid-Based Particle using one of the following reagents: ethanol, Triton X-100, or phenol/chloroform. The siRNA concentration is quantified using fluorescent reading at 480 nm/520 nm.
The lipid solution was prepared (10 mg/ml) by dissolving the lipid in 200 proof ethanol. The lipid mixture solution is prepared according to the above composition in Table 5.
An siRNA (TetR_ODC—12, G.G.G.G.A.A.A.G.C.U.G.G.C.A.A.G.A.U.U.U.U SEQ ID NO: 1) (ThermoFisher) solution is prepared in a concentration of 10 mg/ml by dissolving 10 mg siRNA in 1 ml of DNAse/RNAse-free distilled water.
(§2) A round bottom flask was submerged into a 65° C. water bath. Citrate buffer (37.5 ml) of pH 4.0 was pipetted into the flask. The solution was stirred by a magnetic stirring bar at a speed of 900 rpm. Both the pH 4.0 citrate buffer and the lipid solution were pre-warmed in the 65° C. water bath for about 3 minutes. A siRNA solution (0.5 ml) was pipetted into the pH 4.0 citrate buffer. The 12.5 ml lipid mixture solution was injected through a 27 gauge needle into the citrate buffer in about 30 seconds. The needle tip was inserted into the solution during the injection. The resulting solution was stirred for 5 minutes at a speed of 900 rpm. The flask was pulled up from the water bath and a 50 ml pH 7.4 PBS buffer was added into the flask. The final solution was further mixed at a speed of 900 rpm for 5 minutes. For the diafiltration process, a dialysis filter (Millipore, 100K, Cat#PXB100C50) was used to remove ethanol in the above solution. When the volume was reduced to 20 ml during the initial diafiltration, 20 ml of pH 7.4 PBS was added to the sample solution. The diafiltration was continued until the volume was reduced to 20 ml. The diafiltration process was repeated 4 times. The volume of the sample solution was reduced to about 12 ml and pH 7.4 PBS was added to make the final volume of 15 ml. The 15 ml solution was filtered sequentially through the 0.45 and 0.22 μm sterile PVDF membrane filters (Millipore) and immediately transferred into a sterile vial.
For `CCCCC/C=C\C/C=C\CCCCCCCCOCC(CCN1CCOCC1)OCCCCCCCC/C=C\C/C=C\CCCCC` (stereo not drawn) [Example 2, 4-{3,4-bis[(9Z,12Z)-octadeca-9,12-dienyloxy]butyl}morpholine], the “% Encapsulation Efficiency” value was 83.6%.

Assay: Particle sizing assay (Zetasizer Nano ZS), in vivo formulations
Format: physicochemical
Conditions: in vivo formulation A: Cationic lipid/Example 73/DSPC/Chol 45/10/15/30 wt %, lipid:siRNA 25:1
Procedure: as §2
For measurements of particle sizes and size distributions (PDI), lipid-based particles were prepared as described above. The particle solution (60 μL) was pipetted into a disposable cuvette (UVette, Eppendorf, cat#952010051) and measured in the “General Purpose” mode. Attenuator and position were optimized by the device. Measurements were performed using a Zetasizer Nano ZS (Malvern Instruments) equipped with a 4 mW He—Ne laser at a wavelength of 633 nm at 25° C. Scattered light was detected at a 173° backward scattering angle. The viscosity and refractive index of water at 25° C. was used for data analysis with the Dispersion Technology Software 5.00 (Malvern Instruments).
With `CCCCC/C=C\C/C=C\CCCCCCCCOCC(CCN1CCOCC1)OCCCCCCCC/C=C\C/C=C\CCCCC` (stereo not drawn) [Example 2, 4-{3,4-bis[(9Z,12Z)-octadeca-9,12-dienyloxy]butyl}morpholine] the Size was 89 nm and the “Size distribution (PDI)” value was “(0.1)”.

Assay: RiboGreen assay of siRNA encapsulation efficiency, in vitro formulations of Lipid-Based Particles
Format: physicochemical
Conditions: in vitro formulation b: Cationic lipid/PEG-cholesterol/DSPC/Chol 45/10/15/30 wt %, lipid:siRNA 25:1
Procedure: The mixing solution of cationic lipids, cholesterol, non-cationic lipids and PEG-lipids was prepared in ethanol (total concentration at 10 mg/mL). siSTABLE (purchased from ThermoFisher) (sense-5′ GGGGAAAGCUGGCAAGAUUUU-3′SEQ ID NO. 1, antisense-5′-AAUCUUGCCAGCUUUCCCCUU-3′ SEQ ID NO: 2) % stock solution was prepared in 10 mg/mL of solution by dissolving 10 mg siRNA in 1 mL of RNAse-free UltraPure Water. The calculated amount of siRNA solution was added to 1 mL of citrate buffer (pH 4.0, 20 mM), to provide an siRNA concentration of 0.2 mg/mL, and warmed to 60 C. The calculated amount of lipid solution was warmed to 60 C, transferred to a 0.5 mL syringe with 28½ gauge needle, and injected into the citrate buffer with stirring at 60 C. After 3 minutes, 3 mL of PBS solution at room temperature (pH 7.4) was added into the lipid mixture with stirring. The Lipid-Based Particle solution was cooled to room temperature.
The siRNA concentrations were measured using Quanti-iT RiboGreen RNA reagent (Molecular Probes, (R11490)). Vesicle sizes were characterized by dynamic light scattering with a DynaPro™ Plate Reader (Wyatt Technology) in 96-well half-area UV plate (Coring) after diluting the formulation sample (20 μL) in phosphate buffered saline (80 μL) at a pH of about 7-8. A 1% agarose gel-based assay was used for analyzing nuclease degradation and protection. Encapsulation efficiency (EE) was calculated using data obtained from a RiboGreen assay.
as §1
For `CCCCCCCC/C=C\CCCCCCCCOCC(CCN1CCCC1)OCCCCCCCC/C=C\CCCCCCCC` (stereo not drawn) [Example 34, 1-{3,4-bis[(9Z)-octadec-9-enyloxy]butyl}pyrrolidine], the “% Encapsulation Efficiency” value was 99%. For `CCCCC/C=C\C/C=C\CCCCCCCCC1(CCCCCCC/C=C\C/C=C\CCCCC)OCC(CCN(CC)CC)O1` (stereo not drawn) [Example 32, N,N-diethyl-N-(2-{2-[(8Z,11Z)-heptadeca-8,11-dienyl]-2-[(9Z,12Z)-octadeca-9,12-dienyl]-1,3-dioxolan-4-yl}ethyl)amine], the “% Encapsulation Efficiency” value was 98.6%. In the case of `CCCCC/C=C\C/C=C\CCCCCCCCOC[C@H](CCOC(=O)NCCCN1CCCC1)OCCCCCCCC/C=C\C/C=C\CCCCC` [Example 36, (3S)-3,4-bis[(9Z,12Z)-octadeca-9,12-dienyloxy]butyl 3-pyrrolidin-1-ylpropylcarbamate], the “% Encapsulation Efficiency” value is reported as 99%. With `CCCCC/C=C\C/C=C\CCCCCCCCOCC(CCNCCCN1CCCC1)OCCCCCCCC/C=C\C/C=C\CCCCC` (stereo not drawn) [Example 47, N-{3,4-bis[(9Z,12Z)-octadeca-9,12-dienyloxy]butyl}-N-(3-pyrrolidin-1-ylpropyl)amine] the “% Encapsulation Efficiency” value was 99%. With `CCCCC/C=C\C/C=C\CCCCCCCCOCC(CCN1CCC(n2ccnc2)C1)OCCCCCCCC/C=C\C/C=C\CCCCC` (stereo not drawn) [Example 46, 1-(1-{3,4-bis[(9Z,12Z)-octadeca-9,12-dienyloxy]butyl}pyrrolidin-3-yl)-1H-imidazole] the “% Encapsulation Efficiency” value was 98%. For `CCCCC/C=C\C/C=C\C/C=C\C/C=C\CCCC(=O)OCC(CCN1CCCC1)OC(=O)CCC/C=C\C/C=C\C/C=C\C/C=C\CCCCC` (stereo not drawn) [Example 35, 1-{[(5Z,8Z,11Z,14Z)-icosa-5,8,11,14-tetraenoyloxy]methyl}-3-pyrrolidin-1-ylpropyl(5Z,8Z,11Z,14Z)-icosa-5,8,11,14-tetraenoate], the “% Encapsulation Efficiency” value was 83.5%. In the case of `CCCCC/C=C\C/C=C\CCCCCCCCOCC(CCN1CCC1)OCCCCCCCC/C=C\C/C=C\CCCCC` (stereo not drawn) [Example 49, 1-{3,4-bis[(9Z,12Z)-octadeca-9,12-dienyloxy]butyl}azetidine], the “% Encapsulation Efficiency” value is reported as 99%. For `CC/C=C\C/C=C\C/C=C\CCCCCCCCOCC(CCN1CCCC1)OCCCCCCCC/C=C\C/C=C\C/C=C\CC` (stereo not drawn) [Example 42, 1-{3,4-bis[(9Z,12Z,15Z)-octadeca-9,12,15-trienyloxy]butyl}pyrrolidine], the “% Encapsulation Efficiency” value was 98%. With `CCCCC/C=C/C/C=C/CCCCCCCCOCC(CCN1CCCC1)OCCCCCCCC/C=C/C/C=C/CCCCC` (stereo not drawn) [Example 41, 1-{3,4-bis[(9E,12E)-octadeca-9,12-dienyloxy]butyl}pyrrolidine] the “% Encapsulation Efficiency” value was 99%. With `CCCCCCCCCCCCCCCCCCOCC(CCN1CCCC1)OCCCCCCCCCCCCCCCCCC` (stereo not drawn) [Example 37, 1-[3,4-bis(octadecyloxy)butyl]pyrrolidine] the “% Encapsulation Efficiency” value was 98.5%. With `CCCCC/C=C\C/C=C\CCCCCCCCOCC(CCOCCC1CCCN1C)OCCCCCCCC/C=C\C/C=C\CCCCC` (stereo not drawn) [Example 26, 2-(2-{3,4-bis[(9Z,12Z)-octadeca-9,12-dienyloxy]butoxy}ethyl)-1-methylpyrrolidine] the “% Encapsulation Efficiency” value was 99.9%. For `CCCCC/C=C\C/C=C\CCCCCCCCOCC(CCOCCN(C)C)OCCCCCCCC/C=C\C/C=C\CCCCC` (stereo not drawn) [Example 29, N-(2-{3,4-bis[(9Z,12Z)-octadeca-9,12-dienyloxy]butoxy}ethyl)-N,N-dimethylamine], the “% Encapsulation Efficiency” value was 96.4%. In the case of `CCCCC/C=C\C/C=C\CCCCCCCCOCC(CCN1C(C)CCC1C)OCCCCCCCC/C=C\C/C=C\CCCCC` (stereo not drawn) [Example 51, 1-{3,4-bis[(9Z,12Z)-octadeca-9,12-dienyloxy]butyl}-2,5-dimethylpyrrolidine], the “% Encapsulation Efficiency” value is reported as 99%. With `CCCCC/C=C\C/C=C\CCCCCCCCOCC(CCN(C)CCCN(C)C)OCCCCCCCC/C=C\C/C=C\CCCCC` (stereo not drawn) [Example 45, N-{3,4-bis[(9Z,12Z)-octadeca-9,12-dienyloxy]butyl}-N,N′,N′-trimethylpropane-1,3-diamine] the “% Encapsulation Efficiency” value was 99%. For `CCCCC/C=C\C/C=C\CCCCCCCCOCC(CCOCCN(CC)CC)OCCCCCCCC/C=C\C/C=C\CCCCC` (stereo not drawn) [Example 25, N-(2-{3,4-bis[(9Z,12Z)-octadeca-9,12-dienyloxy]butoxy}ethyl)-N,N-diethylamine], the “% Encapsulation Efficiency” value was 96.1%. In the case of “1-[3,4-bis(hexadecyloxy)butyl]pyrrolidine [Example 38]”, the “% Encapsulation Efficiency” value is reported as 99%. For `CCCCCCCC/C=C\CCCCCCCC(=O)OCC(CCN1CCCC1)OC(=O)CCCCCCC/C=C\CCCCCCCC` (stereo not drawn) [Example 33, 1-{[(9Z)-octadec-9-enoyloxy]methyl}-3-pyrrolidin-1-ylpropyl (9Z)-octadec-9-enoate], the “% Encapsulation Efficiency” value was 99%. In the case of `CCCCC/C=C\C/C=C\CCCCCCCCOCC(CCN1CCCC1C)OCCCCCCCC/C=C\C/C=C\CCCCC` (stereo not drawn) [Example 50, 1-{3,4-bis[(9Z,12Z)-octadeca-9,12-dienyloxy]butyl}-2-methylpyrrolidine], the “% Encapsulation Efficiency” value is reported as 99%. With `CCCCC/C=C\C/C=C\CCCCCCCCOCC(CCNCCCn1ccnc1)OCCCCCCCC/C=C\C/C=C\CCCCC` (stereo not drawn) [Example 44, N-{3,4-bis[(9Z,12Z)-octadeca-9,12-dienyloxy]butyl}-N-[3-(1H-imidazol-1-yl)propyl]amine] the “% Encapsulation Efficiency” value was 98%. With `CCCCC/C=C\C/C=C\CCCCCCCCOC[C@H](CCNC(=O)CCN(CC)CC)OCCCCCCCC/C=C\C/C=C\CCCCC` [Example 43, N^1-{(3S)-3,4-bis[(9Z,12Z)-octadeca-9,12-dienyloxy]butyl}-N^3,N^3-diethyl-beta-alaninamide] the “% Encapsulation Efficiency” value was 96.5%. With `CCCCC/C=C\C/C=C\CCCCCCCCOCC(CCNCCCN(C)C)OCCCCCCCC/C=C\C/C=C\CCCCC` (stereo not drawn) [Example 48, N-{3,4-bis[(9Z,12Z)-octadeca-9,12-dienyloxy]butyl}-N′,N′-dimethylpropane-1,3-diamine] the “% Encapsulation Efficiency” value was 99%. With `CCCCCC/C=C/CCCCCCCCOCC(CCN1CCCC1)OCCCCCCCC/C=C/CCCCCC` (stereo not drawn) [Example 39, 1-{3,4-bis[(9E)-hexadec-9-enyloxy]butyl}pyrrolidine] the “% Encapsulation Efficiency” value was 99%. For `CCCCCCCC/C=C/CCCCCCCCOCC(CCN1CCCC1)OCCCCCCCC/C=C/CCCCCCCC` (stereo not drawn) [Example 40, 1-{3,4-bis[(9E)-octadec-9-enyloxy]butyl}pyrrolidine], the “% Encapsulation Efficiency” value was 97%. In the case of `CCCCC/C=C\C/C=C\CCCCCCCCOCC(CCOCCN1CC1)OCCCCCCCC/C=C\C/C=C\CCCCC` (stereo not drawn) [Example 27, 1-(2-{3,4-bis[(9Z,12Z)-octadeca-9,12-dienyloxy]butoxy}ethyl)aziridine], the “% Encapsulation Efficiency” value is reported as 97%.
